{"source": "the supplement of paper PMC10307832", "test_in_all_cases": "relative viability (nuclei count vs DMSO), 5 days (fraction); higher = more cells survive", "key": {"HCC-44": {"system": "HCC-44", "outline": "(§1)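 Relative viability divides the nuclei count in treated wells by that in vehicle wells. Lung cancer cell lines were seeded in 1536-well plates, dosed by pin tool the next day, and fixed and stained after 5 days in one step with final 0.05% Triton X-100, 1% formaldehyde and 1 ug/ml Hoechst. Dosing was a single drug or a fixed anchor-drug dose plus five library-drug doses (not always all listed) in √10 steps, and values are medians of duplicate plates imaged at 4×.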"}, "NCI-H1650": {"system": "NCI-H1650", "outline": "as §1"}, "NCI-H1944": {"system": "NCI-H1944", "outline": "as §1"}, "PC-3 [JPC-3]": {"system": "PC-3 [JPC-3]", "outline": "as §1"}, "H3255": {"system": "H3255", "outline": "as §1"}, "NCI-H23": {"system": "NCI-H23", "outline": "as §1"}, "COR-L23": {"system": "COR-L23", "outline": "as §1"}, "PC-14": {"system": "PC-14", "outline": "as §1"}, "NCI-H2347": {"system": "NCI-H2347", "outline": "as §1"}, "SW 900": {"system": "SW 900", "outline": "as §1"}, "LK-2": {"system": "LK-2", "outline": "as §1"}, "NCI-H838": {"system": "NCI-H838", "outline": "as §1"}, "LU99A": {"system": "LU99A", "outline": "as §1"}, "NCI-H650": {"system": "NCI-H650", "outline": "as §1"}, "NCI-H1563": {"system": "NCI-H1563", "outline": "as §1"}, "SW 1573": {"system": "SW 1573", "outline": "as §1"}, "LCLC-103H": {"system": "LCLC-103H", "outline": "as §1"}, "NCI-H727": {"system": "NCI-H727", "outline": "as §1"}, "NCI-H460": {"system": "NCI-H460", "outline": "as §1"}, "LCLC-97TM1": {"system": "LCLC-97TM1", "outline": "as §1"}, "A-427": {"system": "A-427", "outline": "as §1"}, "NCI-H1793": {"system": "NCI-H1793", "outline": "as §1"}, "201T": {"system": "201T", "outline": "as §1"}}}
{"compound": "O=C(O)c1ccc(-c2c[nH]c3ncc(-c4ccccc4)cc23)cc1C1CCCC1", "note": "+ COc1cccc2cc(-c3nc([C@H]4CC[C@H](C(=O)O)CC4)n4ncnc(N)c34)[nH]c12 [OSI-027] (partner 0.5 µM)", "values": [{"measurement": "relative viability", "setting": "HCC-44; first compound 0.04 µM", "result": 0.512}, {"measurement": "relative viability", "setting": "HCC-44; first compound 0.1265 µM", "result": 0.505}, {"measurement": "relative viability", "setting": "HCC-44; first compound 0.4 µM", "result": 0.594}, {"measurement": "relative viability", "setting": "HCC-44; first compound 1.265 µM", "result": 0.484}, {"measurement": "relative viability", "setting": "NCI-H1650; first compound 0.04 µM", "result": 0.544}, {"measurement": "relative viability", "setting": "NCI-H1650; first compound 0.1265 µM", "result": 0.624}, {"measurement": "relative viability", "setting": "NCI-H1650; first compound 0.4 µM", "result": 0.624}, {"measurement": "relative viability", "setting": "NCI-H1650; first compound 1.265 µM", "result": 0.394}, {"measurement": "relative viability", "setting": "NCI-H1944; first compound 0.04 µM", "result": 0.429}, {"measurement": "relative viability", "setting": "NCI-H1944; first compound 0.1265 µM", "result": 0.428}, {"measurement": "relative viability", "setting": "NCI-H1944; first compound 0.4 µM", "result": 0.345}, {"measurement": "relative viability", "setting": "NCI-H1944; first compound 1.265 µM", "result": 0.39}, {"measurement": "relative viability", "setting": "PC-3 [JPC-3]; first compound 0.04 µM", "result": 0.784}, {"measurement": "relative viability", "setting": "PC-3 [JPC-3]; first compound 0.1265 µM", "result": 0.792}, {"measurement": "relative viability", "setting": "PC-3 [JPC-3]; first compound 0.4 µM", "result": 0.82}, {"measurement": "relative viability", "setting": "PC-3 [JPC-3]; first compound 1.265 µM", "result": 0.655}, {"measurement": "relative viability", "setting": "H3255; first compound 0.04 µM", "result": 0.671}, {"measurement": "relative viability", "setting": "H3255; first compound 0.1265 µM", "result": 0.662}, {"measurement": "relative viability", "setting": "H3255; first compound 0.4 µM", "result": 0.554}, {"measurement": "relative viability", "setting": "H3255; first compound 1.265 µM", "result": 0.506}, {"measurement": "relative viability", "setting": "NCI-H23; first compound 0.04 µM", "result": 0.599}, {"measurement": "relative viability", "setting": "NCI-H23; first compound 0.1265 µM", "result": 0.71}, {"measurement": "relative viability", "setting": "NCI-H23; first compound 0.4 µM", "result": 0.576}, {"measurement": "relative viability", "setting": "NCI-H23; first compound 1.265 µM", "result": 0.531}, {"measurement": "relative viability", "setting": "COR-L23; first compound 0.04 µM", "result": 0.763}, {"measurement": "relative viability", "setting": "COR-L23; first compound 0.1265 µM", "result": 0.876}, {"measurement": "relative viability", "setting": "COR-L23; first compound 0.4 µM", "result": 0.701}, {"measurement": "relative viability", "setting": "COR-L23; first compound 1.265 µM", "result": 0.511}, {"measurement": "relative viability", "setting": "PC-14; first compound 0.04 µM", "result": 0.759}, {"measurement": "relative viability", "setting": "PC-14; first compound 0.1265 µM", "result": 0.86}, {"measurement": "relative viability", "setting": "PC-14; first compound 0.4 µM", "result": 0.826}, {"measurement": "relative viability", "setting": "PC-14; first compound 1.265 µM", "result": 0.877}, {"measurement": "relative viability", "setting": "NCI-H2347; first compound 0.04 µM", "result": 0.451}, {"measurement": "relative viability", "setting": "NCI-H2347; first compound 0.1265 µM", "result": 0.392}, {"measurement": "relative viability", "setting": "NCI-H2347; first compound 0.4 µM", "result": 0.425}, {"measurement": "relative viability", "setting": "NCI-H2347; first compound 1.265 µM", "result": 0.367}, {"measurement": "relative viability", "setting": "SW 900; first compound 0.04 µM", "result": 0.696}, {"measurement": "relative viability", "setting": "SW 900; first compound 0.1265 µM", "result": 0.493}, {"measurement": "relative viability", "setting": "SW 900; first compound 0.4 µM", "result": 0.631}, {"measurement": "relative viability", "setting": "SW 900; first compound 1.265 µM", "result": 0.595}, {"measurement": "relative viability", "setting": "LK-2; first compound 0.04 µM", "result": 0.202}, {"measurement": "relative viability", "setting": "LK-2; first compound 0.1265 µM", "result": 0.23}, {"measurement": "relative viability", "setting": "LK-2; first compound 0.4 µM", "result": 0.165}, {"measurement": "relative viability", "setting": "LK-2; first compound 1.265 µM", "result": 0.195}, {"measurement": "relative viability", "setting": "NCI-H838; first compound 0.04 µM", "result": 0.322}, {"measurement": "relative viability", "setting": "NCI-H838; first compound 0.1265 µM", "result": 0.452}, {"measurement": "relative viability", "setting": "NCI-H838; first compound 0.4 µM", "result": 0.4}, {"measurement": "relative viability", "setting": "NCI-H838; first compound 1.265 µM", "result": 0.358}, {"measurement": "relative viability", "setting": "LU99A; first compound 0.04 µM", "result": 0.314}, {"measurement": "relative viability", "setting": "LU99A; first compound 0.1265 µM", "result": 0.309}, {"measurement": "relative viability", "setting": "LU99A; first compound 0.4 µM", "result": 0.364}, {"measurement": "relative viability", "setting": "LU99A; first compound 1.265 µM", "result": 0.3}, {"measurement": "relative viability", "setting": "NCI-H650; first compound 0.04 µM", "result": 0.522}, {"measurement": "relative viability", "setting": "NCI-H650; first compound 0.1265 µM", "result": 0.6}, {"measurement": "relative viability", "setting": "NCI-H650; first compound 0.4 µM", "result": 0.485}, {"measurement": "relative viability", "setting": "NCI-H650; first compound 1.265 µM", "result": 0.457}, {"measurement": "relative viability", "setting": "NCI-H1563; first compound 0.04 µM", "result": 0.72}, {"measurement": "relative viability", "setting": "NCI-H1563; first compound 0.1265 µM", "result": 0.753}, {"measurement": "relative viability", "setting": "NCI-H1563; first compound 0.4 µM", "result": 0.783}, {"measurement": "relative viability", "setting": "NCI-H1563; first compound 1.265 µM", "result": 0.798}, {"measurement": "relative viability", "setting": "SW 1573; first compound 0.04 µM", "result": 0.685}, {"measurement": "relative viability", "setting": "SW 1573; first compound 0.1265 µM", "result": 0.74}, {"measurement": "relative viability", "setting": "SW 1573; first compound 0.4 µM", "result": 0.55}, {"measurement": "relative viability", "setting": "SW 1573; first compound 1.265 µM", "result": 0.447}, {"measurement": "relative viability", "setting": "LCLC-103H; first compound 0.04 µM", "result": 0.444}, {"measurement": "relative viability", "setting": "LCLC-103H; first compound 0.1265 µM", "result": 0.554}, {"measurement": "relative viability", "setting": "LCLC-103H; first compound 0.4 µM", "result": 0.389}, {"measurement": "relative viability", "setting": "LCLC-103H; first compound 1.265 µM", "result": 0.452}, {"measurement": "relative viability", "setting": "NCI-H727; first compound 0.04 µM", "result": 0.678}, {"measurement": "relative viability", "setting": "NCI-H727; first compound 0.1265 µM", "result": 0.672}, {"measurement": "relative viability", "setting": "NCI-H727; first compound 0.4 µM", "result": 0.887}, {"measurement": "relative viability", "setting": "NCI-H727; first compound 1.265 µM", "result": 0.667}, {"measurement": "relative viability", "setting": "NCI-H460; first compound 0.04 µM", "result": 0.645}, {"measurement": "relative viability", "setting": "NCI-H460; first compound 0.1265 µM", "result": 0.75}, {"measurement": "relative viability", "setting": "NCI-H460; first compound 0.4 µM", "result": 0.683}, {"measurement": "relative viability", "setting": "NCI-H460; first compound 1.265 µM", "result": 0.511}, {"measurement": "relative viability", "setting": "LCLC-97TM1; first compound 0.04 µM", "result": 0.474}, {"measurement": "relative viability", "setting": "LCLC-97TM1; first compound 0.1265 µM", "result": 0.659}, {"measurement": "relative viability", "setting": "LCLC-97TM1; first compound 0.4 µM", "result": 0.518}, {"measurement": "relative viability", "setting": "LCLC-97TM1; first compound 1.265 µM", "result": 0.526}, {"measurement": "relative viability", "setting": "A-427; first compound 0.04 µM", "result": 0.48}, {"measurement": "relative viability", "setting": "A-427; first compound 0.1265 µM", "result": 0.54}, {"measurement": "relative viability", "setting": "A-427; first compound 0.4 µM", "result": 0.418}, {"measurement": "relative viability", "setting": "A-427; first compound 1.265 µM", "result": 0.493}, {"measurement": "relative viability", "setting": "NCI-H1793; first compound 0.04 µM", "result": 0.312}, {"measurement": "relative viability", "setting": "NCI-H1793; first compound 0.1265 µM", "result": 0.362}, {"measurement": "relative viability", "setting": "NCI-H1793; first compound 0.4 µM", "result": 0.288}, {"measurement": "relative viability", "setting": "NCI-H1793; first compound 1.265 µM", "result": 0.283}, {"measurement": "relative viability", "setting": "201T; first compound 0.04 µM", "result": 0.693}, {"measurement": "relative viability", "setting": "201T; first compound 0.1265 µM", "result": 0.682}, {"measurement": "relative viability", "setting": "201T; first compound 1.265 µM", "result": 0.716}]}
